Assay results: patent publication US7442501B2, “SQV nucleic acids and polypeptides” (Massachusetts Institute of Technology, priority 2002, dated 2008)

Legend:
[1] = biological target: T1, SQV-4 (Caenorhabditis elegans, UniProt Q19905, T2A); format: biochemical, C. elegans; conditions: for NAD+ reduction: UDP-glucose replaced, 100 μM NAD+ and 250 μM nucleotide sugar
T1 construct: were used for PCR-amplification of the sqv-4 ORF, and the resulting product was digested with NcoI and XhoI and cloned into pET21d; made in house; host or cells: E. coli BL21 pLysS, pET21d; soluble fraction used without purification
Description: (§1) The sqv-4 coding sequences corresponding to the wild-type, n2827, and n2840 alleles were cloned into the pET21d E. coli expression vector and transformed into BL21 pLysS. The oligonucleotides 5′-[…]-3′ (SEQ ID NO:53) and 5′-[…]-3′ (SEQ ID NO:54) were used to generate R353H n2827 and T4101 n2840 mutations, respectively, by site-directed mutagenesis. The oligonucleotides 5′-[…]-3′ (SEQ ID NO:55) and 5′-[…]-3′ (SEQ ID NO:56) were used for PCR-amplification of the sqv-4 ORF, and the resulting product was digested with NcoI and XhoI and cloned into pET21d. All three proteins have a threonine to alanine mutation in the second amino acid because of the addition of an NcoI site at the 5′ end. SQV-4 expression was induced by incubation with 1 mM IPTG for three to four hours at 37° C. E. coli were pelleted and resuspended in 50 mM Tris-HCl pH 7.5, 1 mM DTT, 1 mM EDTA, 1 mM PMSF, 2 μg/ml pepstatin A, and aprotinin and lysed using a French pressure cell. The soluble fraction was separated from the insoluble inclusion bodies by centrifugation at 12,000 g for 20 minutes.
(§2) All assays were performed at room temperature (20 to 22° C.) in 50 mM Tris-HCl, 2 mM dithiothrietol (DTT), pH 8.7. The initial velocity of the reaction was determined from time points during the first 60 seconds after addition of the SQV-4 extract.

[2] = biological target: T2, Protein A-SQV-2 fusion protein (Caenorhabditis elegans, UniProt Q9N491); assay: Galactosyltransferase II assay, acceptor substrate specificity; format: biochemical, C. elegans; conditions: for acceptor for glycosylation by SQV-2: UDP-[3H]galactose with various acceptor substrates; for Enzyme Activity: acceptor 5 mM, donor UDP-[3H]galactose
T2 construct: protein A (modified, secreted); made in house; host or cells: COS7 cells, transient transfection; purified from culture supernatant on IgG-agarose
Method: We assayed a recombinant Protein A-SQV-2 fusion protein expressed in COS7 cells for galactosyltransferase II activity.
Galactosyltransferase activity was assayed in vitro using UDP-[^3H]galactose together with various acceptor substrates.
A sqv-2 coding sequence encoding amino acids 25 to 330 of SQV-2, thus lacking the transmembrane domain at the amino terminus, was cloned into pDEST-CMV-protA vector as follows. The oligonucleotides 5′-[…]-3′ (SEQ ID NO:45) and 5′-[…]-3′ (SEQ ID NO:46) were used as the primers for PCR-amplification, and the resulting product was digested with EcoRI and XhoI and cloned into pENTR3C. The Gateway LR cloning reaction (Invitrogen) was used to transfer the sqv-2 ORF lacking TM into the Gateway destination vector pDEST-CMV-protA to generate a modified amino-terminal protein A fusion protein using the CMV promoter. The plasmid pDEST-CMV-protA was constructed by cloning the Gateway C.1 reading frame cassette, from the manufacturer, into pRK5F10ProteinA (Wei et al., Proc. Natl. Acad. Sci. USA 90:3885-8, 1993), which was digested with EcoRI and blunted using dNTPs, Klenow fragment and T4 DNA polymerase. This plasmid was designed to express a secreted protein A-SQV-2 (amino acids 25-330) fusion protein in mammalian cells.
COS7 cells were transiently transfected with pDEST-CMV-protA-sqv-2 using LIPOFECTAMINE (3:1 (w/w) liposome formulation of the polycationic lipid 2,3-dioleyloxy-N-[2(sperminecarboxamido)ethyl]-N,N-dimethyl-1-propanaminium trifluoroacetate (DOSPA) (Chemical Abstracts Registry name: N-[2-(2,5-bis[(3-aminopropyl)amino]-1-oxpentyl}amino)ethyl]-N,N-dimethyl-2,3-bis(9-octadecenyloxy)-1-propanaminium trifluoroacetate), and the neutral lipid dioleoyl phosphatidylethanolamine (DOPE) in membrane filtered water) (Life Technologies) in accordance with the manufacturer's instructions. […] After seventy-two hours of incubation, the fusion protein was recovered and purified from the cell culture supernatant by affinity chromatography using IgG-agarose (Wei et al., Proc. Natl. Acad. Sci. USA 90:3885-8, 1993).
Galactosyltransferase II activity was assayed using UDP-[1-^3H]Gal (NEN Life Sciences Products, 12.8 Ci/mmol) and various mono- and di-saccharide acceptor substrates, including Xylβ-O-benzyl (Bn), Xylβ-O-naphthol, Galβ-O-naphthalenemethanol (NM), GalNAcβ-O-NM, GlcNAcβ-O-NM, Galβ,14Xylβ-O-Bn, Galβ1,3GlcNAc α-O-NM, Galβ1,3Galβ-O-NM, Galβ1,4GlcNAcβ-O-NM, Galβ1,3GlcNAcβ-O-NM, GlcNAcβ1,3Galβ-O-NM, Manaα,1,6Man α-O-decenyl (Lugemwa et al., J. Biol. Chem. 271:19159-65, 1996; Sarkar et al., Carbohydr Res 329:221-33, 2000; Brown et al., Bioorg. Med. Chem. 9:815-24, 2001). […] After incubation at room temperature for 3 hours, the reaction products were diluted with 1 mL of 0.5 M NaCl and applied to a Sep-Pak C18 (100 mg; Waters). After washing with 5 ml of 0.5 M NaCl and water, the radiolabeled products were eluted with 50% methanol, dried and counted by liquid scintillation.

[3] = biological target: UDP-glucose dehydrogenase (Escherichia coli, UniProt P76373); conditions: cited from earlier work
[4] = biological target: Streptococcus pyogenes UDP-glucose dehydrogenase (Streptococcus pyogenes, UniProt P0C0F4); conditions: cited from earlier work
[5] = biological target: T3, chicken UDP-glucose dehydrogenase (Gallus gallus, UniProt Q5F3T9); conditions: cited from earlier work
T3 sequence (Q5F3T9 1-494): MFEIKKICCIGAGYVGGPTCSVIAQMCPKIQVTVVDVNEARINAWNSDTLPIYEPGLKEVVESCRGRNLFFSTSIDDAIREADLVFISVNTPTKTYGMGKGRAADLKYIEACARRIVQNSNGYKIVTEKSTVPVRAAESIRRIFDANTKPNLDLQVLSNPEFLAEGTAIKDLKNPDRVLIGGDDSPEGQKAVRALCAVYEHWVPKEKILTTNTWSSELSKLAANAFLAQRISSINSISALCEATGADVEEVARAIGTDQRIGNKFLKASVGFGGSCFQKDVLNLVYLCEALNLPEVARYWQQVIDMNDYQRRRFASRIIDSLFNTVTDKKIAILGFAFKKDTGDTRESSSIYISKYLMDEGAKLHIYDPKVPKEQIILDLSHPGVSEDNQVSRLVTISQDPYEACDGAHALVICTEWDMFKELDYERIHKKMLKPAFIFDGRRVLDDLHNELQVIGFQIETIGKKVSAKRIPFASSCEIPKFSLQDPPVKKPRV

[6] = biological target: T4, SQV-4 (Caenorhabditis elegans, UniProt Q19905, R353H/T2A); format: biochemical, C. elegans; conditions: bacterially expressed mutant protein
T4 construct: were used for PCR-amplification of the sqv-4 ORF, and the resulting product was digested with NcoI and XhoI and cloned into pET21d; made in house; host or cells: E. coli BL21 pLysS, pET21d; soluble fraction used without purification
Description: as §1, §2

T1 sequence (Q19905 whole entry T2A): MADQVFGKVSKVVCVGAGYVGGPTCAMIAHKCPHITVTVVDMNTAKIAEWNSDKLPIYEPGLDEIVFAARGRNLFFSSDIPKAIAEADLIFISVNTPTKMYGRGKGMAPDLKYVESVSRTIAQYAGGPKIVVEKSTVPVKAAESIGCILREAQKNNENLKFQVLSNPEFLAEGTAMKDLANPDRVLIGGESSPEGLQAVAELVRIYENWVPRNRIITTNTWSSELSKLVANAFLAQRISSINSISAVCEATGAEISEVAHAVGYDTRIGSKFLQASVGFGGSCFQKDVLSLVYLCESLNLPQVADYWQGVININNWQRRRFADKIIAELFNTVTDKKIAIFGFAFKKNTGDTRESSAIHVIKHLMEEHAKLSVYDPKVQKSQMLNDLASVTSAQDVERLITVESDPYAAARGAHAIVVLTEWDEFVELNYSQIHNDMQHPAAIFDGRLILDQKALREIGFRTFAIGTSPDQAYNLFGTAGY
T2 sequence (Q9N491 25-330): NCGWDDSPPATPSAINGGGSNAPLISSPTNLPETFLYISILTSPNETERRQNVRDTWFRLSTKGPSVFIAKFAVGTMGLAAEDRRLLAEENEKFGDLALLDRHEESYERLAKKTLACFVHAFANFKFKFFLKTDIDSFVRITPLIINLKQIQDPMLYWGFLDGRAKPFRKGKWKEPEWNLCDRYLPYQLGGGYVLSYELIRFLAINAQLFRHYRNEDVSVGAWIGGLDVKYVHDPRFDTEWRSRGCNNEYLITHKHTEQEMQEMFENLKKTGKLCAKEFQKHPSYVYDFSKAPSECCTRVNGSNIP
T4 sequence (Q19905 whole entry T2A/R353H): as the sequence (Q19905 whole entry T2A) above, with R353H counted along it
Streptococcus pyogenes UDP-glucose dehydrogenase, sequence (P0C0F4 whole entry): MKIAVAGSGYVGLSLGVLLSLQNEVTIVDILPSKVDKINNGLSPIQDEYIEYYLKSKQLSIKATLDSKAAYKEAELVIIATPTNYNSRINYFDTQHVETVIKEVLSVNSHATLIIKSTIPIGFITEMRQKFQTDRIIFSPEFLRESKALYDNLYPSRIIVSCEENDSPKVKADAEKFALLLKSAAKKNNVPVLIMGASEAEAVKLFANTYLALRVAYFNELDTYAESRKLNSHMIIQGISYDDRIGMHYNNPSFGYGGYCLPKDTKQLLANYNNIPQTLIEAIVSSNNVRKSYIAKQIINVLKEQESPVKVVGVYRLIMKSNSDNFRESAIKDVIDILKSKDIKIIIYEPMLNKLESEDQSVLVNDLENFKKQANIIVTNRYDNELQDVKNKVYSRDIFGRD

Row | Molecule | NAD+ reduction [1] | Enzyme Activity [2] [pmol/h/mL medium] | also measured
1 | Nc1ncnc2c1ncn2[C@@H]1O[C@H](COP(=O)(O)OP(=O)(O)O[C@H]2O[C@H](CO)[C@@H](O)[C@H](O)[C@H]2O)[C@@H](O)[C@H]1O [ADP-glucose] | undetectable | – | –
2 | OC[C@H]1O[C@@H](O[C@@H]2CO[C@@H](OCc3ccccc3)[C@H](O)[C@H]2O)[C@H](O)[C@@H](O)[C@H]1O [Galβ1,4Xylβ1-O-Bn, galactose-(β1,4)-xylose(β1)-O-benzyl] | – | 2660 | acceptor for glycosylation by SQV-2 [2]: specifically catalyzed addition of galactose
3 | Nc1nc2c(ncn2[C@@H]2O[C@H](COP(=O)(O)OP(=O)(O)O[C@H]3O[C@H](CO)[C@@H](O)[C@H](O)[C@H]3O)[C@@H](O)[C@H]2O)c(=O)[nH]1 [GDP-glucose] | undetectable | – | –
4 | NC(=O)c1ccc[n+]([C@@H]2O[C@H](COP(=O)([O-])OP(=O)(O)OC[C@H]3O[C@@H](n4cnc5c(N)ncnc54)[C@H](O)[C@@H]3O)[C@@H](O)[C@H]2O)c1 [NAD^+] | – | – | Km [3]: 50 µM; Km [4]: 60 µM; Km [5]: 900 µM; Km ([1]; double-reciprocal plot of initial velocities, bacterially expressed SQV-4): 200 µM
5 | CC(=O)N[C@H]1[C@H](OCc2ccccc2)O[C@H](CO)[C@H](O)[C@@H]1O [GalNAcβ1-O-Bn] | – | 0 | –
6 | C=CCCCCCCCCO[C@H]1O[C@H](CO[C@H]2O[C@H](CO)[C@@H](O)[C@H](O)[C@@H]2O)[C@@H](O)[C@H](O)[C@@H]1O [Manα1,6Manα1-O—C10] | – | 0 | –
7 | O[C@@H]1[C@@H](O)[C@H](OCc2ccc3ccccc3c2)OC[C@H]1O [Xylβ1-O-naphthol, xylose-(β1)-O-naphthalenemethanol] | – | 0 | acceptor for glycosylation by SQV-2 [2]: None of the other acceptors tested acted as an acceptor
8 | Nc1ccn([C@@H]2O[C@H](COP(=O)(O)OP(=O)(O)O[C@H]3O[C@H](CO)[C@@H](O)[C@H](O)[C@H]3O)[C@@H](O)[C@H]2O)c(=O)n1 [CDP-glucose] | undetectable | – | –
9 | Cc1cn([C@H]2C[C@H](O)[C@@H](COP(=O)(O)OP(=O)(O)O[C@H]3O[C@H](CO)[C@@H](O)[C@H](O)[C@H]3O)O2)c(=O)[nH]c1=O [TDP-glucose] | undetectable | – | –
10 | CC(=O)N[C@H]1[C@@H](OP(=O)(O)OP(=O)(O)OC[C@H]2O[C@@H](n3ccc(=O)[nH]c3=O)[C@H](O)[C@@H]2O)O[C@H](CO)[C@@H](O)[C@@H]1O [UDP-N-acetyl-glucosamine] | undetectable | – | –
11 | O[C@@H]1[C@@H](O)[C@H](OCc2ccccc2)OC[C@H]1O [Xylβ1-O-Bn, xylose-(β1)-O-benzyl] | – | 0 | acceptor for glycosylation by SQV-2 [2]: None of the other acceptors tested acted as an acceptor
12 | SQV-4 protein that contained a histidine for arginine substitution at amino acid position 353: bacterially expressed mutant SQV-4 corresponding to the sqv-4 mutant allele n2827 (protein, UniProt Q19905 1-481, looked up, variant R353H) UDP-glucose 6-dehydrogenase: MTDQVFGKVSKVVCVGAGYVGGPTCAMIAHKCPHITVTVVDMNTAKIAEWNSDKLPIYEPGLDEIVFAARGRNLFFSSDIPKAIAEADLIFISVNTPTKMYGRGKGMAPDLKYVESVSRTIAQYAGGPKIVVEKSTVPVKAAESIGCILREAQKNNENLKFQVLSNPEFLAEGTAMKDLANPDRVLIGGESSPEGLQAVAELVRIYENWVPRNRIITTNTWSSELSKLVANAFLAQRISSINSISAVCEATGAEISEVAHAVGYDTRIGSKFLQASVGFGGSCFQKDVLSLVYLCESLNLPQVADYWQGVININNWQRRRFADKIIAELFNTVTDKKIAIFGFAFKKNTGDTHESSAIHVIKHLMEEHAKLSVYDPKVQKSQMLNDLASVTSAQDVERLITVESDPYAAARGAHAIVVLTEWDEFVELNYSQIHNDMQHPAAIFDGRLILDQKALREIGFRTFAIGTSPDQAYNLFGTAGY | – | – | decrease in UDP-glucose dehydrogenase activity [6]: greater than 20 fold
13 | wild-type SQV-4 protein: recombinant SQV-4 protein expressed in E. coli, soluble lysate fraction (protein, UniProt Q19905 1-481, looked up) UDP-glucose 6-dehydrogenase: MTDQVFGKVSKVVCVGAGYVGGPTCAMIAHKCPHITVTVVDMNTAKIAEWNSDKLPIYEPGLDEIVFAARGRNLFFSSDIPKAIAEADLIFISVNTPTKMYGRGKGMAPDLKYVESVSRTIAQYAGGPKIVVEKSTVPVKAAESIGCILREAQKNNENLKFQVLSNPEFLAEGTAMKDLANPDRVLIGGESSPEGLQAVAELVRIYENWVPRNRIITTNTWSSELSKLVANAFLAQRISSINSISAVCEATGAEISEVAHAVGYDTRIGSKFLQASVGFGGSCFQKDVLSLVYLCESLNLPQVADYWQGVININNWQRRRFADKIIAELFNTVTDKKIAIFGFAFKKNTGDTRESSAIHVIKHLMEEHAKLSVYDPKVQKSQMLNDLASVTSAQDVERLITVESDPYAAARGAHAIVVLTEWDEFVELNYSQIHNDMQHPAAIFDGRLILDQKALREIGFRTFAIGTSPDQAYNLFGTAGY | – | – | UDP-glucose dehydrogenase activity increase ([1]; lysates vs lysates with vector alone or mutant SQV-4 protein): at least 20 fold
